≈ marks a conversion by molar mass, not a printed value.
Key:
[1] = test system: general wild strain bacteria; assay: Minimum inhibitory concentration (MIC) against general wild strain bacteria; assay type: cell-based
Description: (§1) A minimum inhibitory concentration (MIC) of a MUM was determined and compared to that of the biocide glutaraldehyde. Specifically, the indicated compound or blend of compounds was used to treat a wildtype E. coli strain and the effect of this treatment on bacterial count used to determine the MIC.
(§2) However, the mixture of the glyoxal and glycolaldehyde (1,4 dioxane 2,5 diol) provided competitive performance to glutaraldehyde.

E. Coli = assay: Minimum inhibitory concentration (MIC) against E. coli; assay type: cell-based; details: Escherichia coli
Description: as §1, §2

Row | Compound | MIC [1] [µg/mL] | MIC (E. Coli) [µg/mL]
1 | O=CC=O [39% glyoxal, glyoxal] | > 1000 | 1000 (≈ 17.2 mM)
2 | OC1COC(O)CO1 (stereo not drawn) [39% 1,4 dioxane 2,5 diol, 1,4 dioxane 2,5 diol] | > 1000 | 1000 (≈ 8.33 mM)
3 | O=CCCCC=O [40% glutaraldehyde, glutaraldehyde] | 1000 (≈ 9.99 mM) | 1000 (≈ 9.99 mM)

Reference: patent publication US20260363239A1, “COMPOSITIONS TO CONTROL LEVEL OF UNDESIRABLE MATERIALS” (Solugen, Inc., priority 2022, published 2026)
